The numbers were not newly measured in US20250367260A1, “TIRZEPATIDE COMPOSITIONS AND PREPARATION METHOD” (Galenicum Health S.L.U., priority 2024, published 2025), which cites them from elsewhere.

Molecules are shown by their SMILES.

Turning to `O=S(=O)(O)CC(O)CNC(CO)(CO)CO` (stereo not drawn) [TAPSO, 3-[N-Tris(hydroxymethyl)methylamino]-2-hydroxypropanesulfonic acid], the pKa result is reported as “≈ 7.6”.

On to `O=S(=O)(O)CCCN1CCN(CCO)CC1` [HEPPS, 4-(2-Hydroxyethyl)-1-piperazinepropanesulfonic acid], for which the pKa entry was “≈ 8.1”.

For the compound `O=S(=O)(O)CCNC(CO)(CO)CO` [TES, N-[Tris(hydroxymethyl)methyl]-2-aminoethanesulfonic acid], the pKa result is “≈ 7.4”.

On to `O=S(=O)(O)CC(O)CN(CCO)CCO` (stereo not drawn) [DIPSO, 3-(N,N-Bis[2-hydroxyethyl]amino)-2-hydroxypropanesulfonic acid], for which the pKa entry is on record as “≈ 7.6”.

Consider `O=C(O)CNC(CO)(CO)CO` [Tricine, N-tris(hydroxymethyl)methylglycine], for which the pKa result was “≈ 8.2”.

Regarding `O=S(=O)(O)CCN1CCN(CCO)CC1` [HEPES, 4-(2-hydroxyethyl)-1-piperazineethanesulfonic acid], the pKa result is recorded as “≈ 7.5”.
